# Measured values from PubChem BioAssay AID1259407 (Chemical Carcinogenesis Research Information System (CCRIS), 2018).
# The source made the active and inactive calls. How the calls were made is not given here.
# System: CCRIS mutagenicity, Ames/micronucleus/aberration tests
# Experiment: CCRIS mutagenicity studies
# [1] = Test System: AMES SALMONELLA TYPHIMURIUM, Strain/Indicator: TA98, Metabolic Activation: NONE, Method: STANDARD PLATE
# [2] = Test System: AMES SALMONELLA TYPHIMURIUM, Strain/Indicator: TA100, Metabolic Activation: NONE, Method: STANDARD PLATE
# [3] = Test System: AMES SALMONELLA TYPHIMURIUM, Strain/Indicator: TA100, Metabolic Activation: RAT, LIVER, S-9, AROCLOR 1254, Method: STANDARD PLATE
# [4] = Test System: AMES SALMONELLA TYPHIMURIUM, Strain/Indicator: TA1535, Metabolic Activation: NONE, Method: STANDARD PLATE
# [5] = Test System: AMES SALMONELLA TYPHIMURIUM, Strain/Indicator: TA1535, Metabolic Activation: RAT, LIVER, S-9, AROCLOR 1254, Method: STANDARD PLATE
# [6] = Test System: AMES SALMONELLA TYPHIMURIUM, Strain/Indicator: TA1537, Metabolic Activation: NONE, Method: STANDARD PLATE
# [7] = Test System: AMES SALMONELLA TYPHIMURIUM, Strain/Indicator: TA1537, Metabolic Activation: RAT, LIVER, S-9, AROCLOR 1254, Method: STANDARD PLATE
# [8] = Test System: AMES SALMONELLA TYPHIMURIUM, Strain/Indicator: TA1538, Metabolic Activation: NONE, Method: STANDARD PLATE
# [9] = Test System: AMES SALMONELLA TYPHIMURIUM, Strain/Indicator: TA1538, Metabolic Activation: RAT, LIVER, S-9, AROCLOR 1254, Method: STANDARD PLATE
# [10] = Test System: AMES SALMONELLA TYPHIMURIUM, Strain/Indicator: TA98, Metabolic Activation: RAT, LIVER, S-9, AROCLOR 1254, Method: STANDARD PLATE
compound,measurement,setting,value
Cc1ccc(C(C)(C)C)c(O)c1C(O)c1ncc([N+](=O)[O-])n1C (stereo unspecified),mutagenic call,[1],inactive; negative
same,mutagenic call,"Test System: AMES SALMONELLA TYPHIMURIUM, Strain/Indicator: TA 98, Metabolic Activation: RAT, LIVER, S-9, AROCLOR 1254, Method: STANDARD PLATE",inactive; negative
same,mutagenic call,[2],inactive; negative
same,mutagenic call,[3],inactive; negative
same,mutagenic call,[4],inactive; negative
same,mutagenic call,[5],inactive; negative
same,mutagenic call,[6],inactive; negative
same,mutagenic call,[7],inactive; negative
same,mutagenic call,[8],inactive; negative
same,mutagenic call,[9],inactive; negative
O=[N+]([O-])c1cccc2ccccc12,mutagenic call,[1],active; positive
same,mutagenic call,"Test System: E. COLI, Strain/Indicator: WP2 UVRA, Metabolic Activation: HAMSTER, LIVER, S-9, AROCLOR 1254, Method: STANDARD PLATE",inactive; negative
same,mutagenic call,"Test System: E. COLI, Strain/Indicator: WP2 UVRA, Metabolic Activation: MOUSE, LIVER, S-9, AROCLOR 1254, Method: STANDARD PLATE",inactive; negative
same,mutagenic call,"Test System: E. COLI, Strain/Indicator: WP2 UVRA, Metabolic Activation: MOUSE, LIVER, S-9, Method: STANDARD PLATE",inactive; negative
same,mutagenic call,"Test System: E. COLI, Strain/Indicator: WP2 UVRA, Metabolic Activation: NONE, Method: STANDARD PLATE",inactive; negative
same,mutagenic call,"Test System: E. COLI, Strain/Indicator: WP2 UVRA, Metabolic Activation: RAT, LIVER, S-9, AROCLOR 1254, Method: STANDARD PLATE",inactive; negative
same,mutagenic call,"Test System: E. COLI, Strain/Indicator: WP2 UVRA, Metabolic Activation: RAT, LIVER, S-9, Method: STANDARD PLATE",inactive; negative
O=C(c1ccc([N+](=O)[O-])cc1)n1ncc(Cl)c(Cl)c1=O,mutagenic call,[1],inactive; negative
same,mutagenic call,[10],inactive; negative
same,mutagenic call,[2],active; positive
same,mutagenic call,[3],active; positive
same,mutagenic call,[4],active; positive
same,mutagenic call,[5],active; positive
same,mutagenic call,[6],inactive; negative
same,mutagenic call,[7],inactive; negative
C=CC(O)c1ccc2c(c1)OCO2 (stereo unspecified),mutagenic call,"Test System: UDS HUMAN FIBROBLASTS, Strain/Indicator: THY INCORP (NON-S-PHASE), Metabolic Activation: NONE, Method: AUTORADIOGRAPHY",active; positive
NC1CCCCC1,mutagenic call,"Test System: CHINESE HAMSTER OVARY, Strain/Indicator: CHO-K1-BH4 (HGPRT), Metabolic Activation: NONE, Method: STANDARD PLATE",inactive; negative
same,mutagenic call,"Test System: CHINESE HAMSTER OVARY, Strain/Indicator: CHO-K1-BH4 (HGPRT), Metabolic Activation: RAT, LIVER, S-9, Method: STANDARD PLATE",inactive; negative
same,mutagenic call,"Test System: UDS RODENT HEPATOCYTES, Strain/Indicator: THY INCORP (NON-S-PHASE), Metabolic Activation: NONE, Method: AUTORADIOGRAPHY",inactive; negative
Cc1cccc2cc([N+](=O)[O-])ccc12,mutagenic call,"Test System: AMES SALMONELLA TYPHIMURIUM, Strain/Indicator: TA98, Metabolic Activation: NONE, Method: PREINCUBATION",active; positive
Cc1c(/C=N/OCc2ccc(Cl)cc2Cl)c2cc([N+](=O)[O-])ccc2n1Cc1ccc(Cl)cc1,mutagenic call,[1],inactive; negative
same,mutagenic call,"Test System: AMES SALMONELLA TYPHIMURIUM, Strain/Indicator: TA98, Metabolic Activation: RAT, LIVER, S-9, PHENOBARBITAL AND BETA-NAPHTHOFLAVONE, Method: STANDARD PLATE",inactive; negative
same,mutagenic call,[2],inactive; negative
same,mutagenic call,"Test System: AMES SALMONELLA TYPHIMURIUM, Strain/Indicator: TA100, Metabolic Activation: RAT, LIVER, S-9, PHENOBARBITAL AND BETA-NAPHTHOFLAVONE, Method: STANDARD PLATE",inactive; negative
Cc1ccc(C)c(C)c1C,mutagenic call,"Test System: AMES SALMONELLA TYPHIMURIUM, Strain/Indicator: TA97A, Metabolic Activation: NONE, Method: STANDARD PLATE",inactive; negative
same,mutagenic call,"Test System: AMES SALMONELLA TYPHIMURIUM, Strain/Indicator: TA97A, Metabolic Activation: RAT LIVER S-9, AROCLOR 1254, Method: STANDARD PLATE",inactive; negative
same,mutagenic call,[1],inactive; negative
same,mutagenic call,"Test System: AMES SALMONELLA TYPHIMURIUM, Strain/Indicator: TA98, Metabolic Activation: RAT LIVER S-9, AROCLOR 1254, Method: STANDARD PLATE",inactive; negative
same,mutagenic call,[2],inactive; negative
same,mutagenic call,"Test System: AMES SALMONELLA TYPHIMURIUM, Strain/Indicator: TA100, Metabolic Activation: RAT LIVER S-9, AROCLOR 1254, Method: STANDARD PLATE",inactive; negative
same,mutagenic call,"Test System: AMES SALMONELLA TYPHIMURIUM, Strain/Indicator: TA102, Metabolic Activation: NONE, Method: STANDARD PLATE",inactive; negative
same,mutagenic call,"Test System: AMES SALMONELLA TYPHIMURIUM, Strain/Indicator: TA102, Metabolic Activation: RAT LIVER S-9, AROCLOR 1254, Method: STANDARD PLATE",inactive; negative
O=C(CBr)Nc1ccccc1,mutagenic call,"Test System: AMES SALMONELLA TYPHIMURIUM, Strain/Indicator: TA100, Metabolic Activation: MOUSE, LIVER, S-9, AROCLOR 1254, Method: STANDARD PLATE",inactive; negative
same,mutagenic call,[2],inactive; negative
OCCCc1ccccc1,mutagenic call,"Test System: AMES SALMONELLA TYPHIMURIUM, Strain/Indicator: TA98, Metabolic Activation: HAMSTER, LIVER, S-9, AROCLOR 1254, Method: STANDARD PLATE",inactive; negative
same,mutagenic call,[1],inactive; negative
same,mutagenic call,[10],inactive; negative
same,mutagenic call,"Test System: AMES SALMONELLA TYPHIMURIUM, Strain/Indicator: TA100, Metabolic Activation: HAMSTER, LIVER, S-9, AROCLOR 1254, Method: STANDARD PLATE",inactive; negative
same,mutagenic call,[2],inactive; negative
same,mutagenic call,[3],inactive; negative
same,mutagenic call,"Test System: AMES SALMONELLA TYPHIMURIUM, Strain/Indicator: TA1535, Metabolic Activation: HAMSTER, LIVER, S-9, AROCLOR 1254, Method: STANDARD PLATE",inactive; negative
same,mutagenic call,[4],inactive; negative
same,mutagenic call,[5],inactive; negative
same,mutagenic call,"Test System: AMES SALMONELLA TYPHIMURIUM, Strain/Indicator: TA1537, Metabolic Activation: HAMSTER, LIVER, S-9, AROCLOR 1254, Method: STANDARD PLATE",inactive; negative
same,mutagenic call,[6],inactive; negative
same,mutagenic call,[7],inactive; negative
same,mutagenic call,"Test System: AMES SALMONELLA TYPHIMURIUM, Strain/Indicator: TA1538, Metabolic Activation: HAMSTER, LIVER, S-9, AROCLOR 1254, Method: STANDARD PLATE",inactive; negative
same,mutagenic call,[8],inactive; negative
same,mutagenic call,[9],inactive; negative
same,mutagenic call,"Test System: MOUSE LYMPHOMA, Strain/Indicator: L5178Y (TK+/TK-), Metabolic Activation: NONE, Method: SUSPENSION/PLATE",inactive; negative. reevaluation of results: negative
same,mutagenic call,"Test System: MOUSE LYMPHOMA, Strain/Indicator: L5178Y (TK+/TK-), Metabolic Activation: RAT, LIVER, S-9, AROCLOR 1254, Method: SUSPENSION/PLATE",inactive; negative. reevaluation of results: negative
